Data on 25 compounds can be found in patent US10544150B2, “NK-3 receptor selective antagonist compounds, pharmaceutical composition and methods for use in NK-3 receptors mediated disorders” (Ogeda SA, priority 2010, dated 2020).

Molecules are shown by their SMILES. pKi: −log10 of the molar value.

Sequence of human NK-3 receptor (P29371 whole entry): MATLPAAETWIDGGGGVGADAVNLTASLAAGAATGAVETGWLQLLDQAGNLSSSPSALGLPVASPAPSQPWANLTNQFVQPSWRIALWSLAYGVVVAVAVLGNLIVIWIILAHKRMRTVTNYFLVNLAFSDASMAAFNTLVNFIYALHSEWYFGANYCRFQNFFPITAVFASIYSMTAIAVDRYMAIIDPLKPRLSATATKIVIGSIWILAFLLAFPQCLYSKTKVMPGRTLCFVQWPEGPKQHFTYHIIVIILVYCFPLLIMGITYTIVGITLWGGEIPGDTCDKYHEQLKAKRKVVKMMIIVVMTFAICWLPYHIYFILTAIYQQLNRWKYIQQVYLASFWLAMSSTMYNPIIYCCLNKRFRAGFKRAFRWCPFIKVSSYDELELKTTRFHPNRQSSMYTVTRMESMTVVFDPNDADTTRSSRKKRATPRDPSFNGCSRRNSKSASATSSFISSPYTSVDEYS

In the first experiment the target is human NK-3 receptor (Homo sapiens (Human), UniProt P29371). The experiment is described as follows: 3H-SB222200 binding competition assay with human NK-3 receptor. The following applies: 3H-SB222200 displacement, CHO cell membranes expressing human NK3 receptor; read-out: Ki range. In a few lines:
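Membranes from CHO cells expressing human NK3 receptor incubated with 5 nM 3H-SB222200 and test compound in HEPES 25 mM/NaCl 0.1M/CaCl2 1 mM/MgCl2 5 mM/BSA 0.5%/saponin 10 μg/ml, pH 7.4. Bound radioligand counted after filtration; Ki calculated, reported in bands (+++ <500 nM to # >5 μM).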
For `C[C@@H]1c2nnc(-c3ccc4ccccc4n3)n2CCN1C(=O)c1ccc(-c2cccs2)cc1` [Compound 144, (R)-(8-methyl-3-(quinolin-2-yl)-5,6-dihydro-[1,2,4]triazolo[4,3-a]pyrazin-7(8H)-yl)(4-(thiophen-2-yl)phenyl)methanone], the pKi was above 6.30.

`CC1c2nnc(-c3coc(-c4ccccc4)n3)n2CCN1C(=O)c1ccc(-c2cccs2)cc1` (stereo not shown) [Compound 114, (8-methyl-3-(2-phenyloxazol-4-yl)-5,6-dihydro-[1,2,4]triazolo[4,3-a]pyrazin-7(8H)-yl)(4-(thiophen-2-yl)phenyl)methanone]: the negative logarithm of the Ki (pKi) is above 6.30.

Regarding `C[C@@H]1c2nnc(-c3csc(-c4ccc(F)cc4)n3)n2CCN1C(=O)c1ccc(F)cc1` [Compound 71, (R)-(4-fluorophenyl)(3-(2-(4-fluorophenyl)thiazol-4-yl)-8-methyl-5,6-dihydro-[1,2,4]triazolo[4,3-a]pyrazin-7(8H)-yl)methanone], the pKi is above 6.30.

As for `O=C(c1ccc(Cl)cc1)N1CCn2c(nnc2-c2ccccn2)C1` [Compound 2, (4-chlorophenyl)(3-(pyridin-2-yl)-5,6-dihydro-[1,2,4]triazolo[4,3-a]pyrazin-7(8H)-yl)methanone], the pKi is 5.30 to 6.00.

With `O=C(c1ccc(-c2ccccc2)cc1)N1CCn2c(nnc2-c2csc(Cn3cnc(Cl)c3Cl)n2)C1` [Compound 186, [1,1′-biphenyl]-4-yl(3-(2-((4,5-dichloro-1H-imidazol-1-yl)methyl)thiazol-4-yl)-5,6-dihydro-[1,2,4]triazolo[4,3-a]pyrazin-7(8H)-yl)methanone], the pKi was 5.30 to 6.00.

In the case of `O=C(c1ccc(F)cc1)N1CCn2c(nnc2-c2csc(-c3ccccc3)n2)C1` [Compound 8, (4-fluorophenyl)(3-(2-phenylthiazol-4-yl)-5,6-dihydro-[1,2,4]triazolo[4,3-a]pyrazin-7(8H)-yl)methanone], the pKi was above 6.30.

`Cn1cc(-c2nnc3n2CCN(C(=O)c2ccc(-c4cccs4)cc2)C3)nc1-c1ccccc1` [Compound 252, (3-(1-methyl-2-phenyl-1H-imidazol-4-yl)-5,6-dihydro-[1,2,4]triazolo[4,3-a]pyrazin-7(8H)-yl)(4-(thiophen-2-yl)phenyl)methanone]: the negative logarithm of the Ki (pKi) is 6.00 to 6.30.

For the compound `O=C(c1ccc(F)cc1)N1CCn2c(nnc2-c2noc(-c3ccccc3)n2)C1` [Compound 173, (4-fluorophenyl)(3-(5-phenyl-1,2,4-oxadiazol-3-yl)-5,6-dihydro-[1,2,4]triazolo[4,3-a]pyrazin-7(8H)-yl)methanone], the pKi was above 6.30.

On to `CC1c2nnc(-c3ccc4ccccc4n3)n2CCN1C(=O)c1ccc(F)cc1` (stereo not shown) [Compound 61, (4-fluorophenyl)(8-methyl-3-(quinolin-2-yl)-5,6-dihydro-[1,2,4]triazolo[4,3-a]pyrazin-7(8H)-yl)methanone], for which the pKi is above 6.30.

Consider `CC1c2nnc(-c3csc(-c4ccccc4)n3)n2CCN1C(=O)c1ccc(-c2cccs2)cc1` (stereo not shown) [Compound 62, (8-methyl-3-(2-phenylthiazol-4-yl)-5,6-dihydro-[1,2,4]triazolo[4,3-a]pyrazin-7(8H)-yl)(4-(thiophen-2-yl)phenyl)methanone], for which the negative-log Ki (pKi) was above 6.30.

For the compound `Cc1ccc(-c2ccc(C(=O)N3CCn4c(-c5csc(-c6ccc(F)cc6)n5)nnc4C3C)cc2)s1` (stereo not shown) [Compound 215, (3-(2-(4-fluorophenyl)thiazol-4-yl)-8-methyl-5,6-dihydro-[1,2,4]triazolo[4,3-a]pyrazin-7(8H)-yl)(4-(5-methylthiophen-2-yl)phenyl)methanone], the pKi is above 6.30.

On to `O=C(c1ccc(F)cc1)N1CCn2c(nnc2-c2nc(-c3ccccc3)ns2)C1` [Compound 212, (4-fluorophenyl)(3-(3-phenyl-1,2,4-thiadiazol-5-yl)-5,6-dihydro-[1,2,4]triazolo[4,3-a]pyrazin-7(8H)-yl)methanone], for which the pKi was above 6.30.

For the compound `COCC1CCCCN1c1nc(-c2nnc3n2CCN(C(=O)c2ccc(-c4cccs4)cc2)C3)cs1` (stereo not shown) [Compound 279, (3-(2-(2-(methoxymethyl)piperidin-1-yl)thiazol-4-yl)-5,6-dihydro-[1,2,4]triazolo[4,3-a]pyrazin-7(8H)-yl)(4-(thiophen-2-yl)phenyl)methanone], the negative logarithm of the Ki (pKi) was above 6.30.

Turning to `COCCn1nc(-c2ccccc2)cc1-c1nnc2n1CCN(C(=O)c1ccc(F)cc1)C2` [Compound 255, (4-fluorophenyl)(3-(1-(2-methoxyethyl)-3-phenyl-1H-pyrazol-5-yl)-5,6-dihydro-[1,2,4]triazolo[4,3-a]pyrazin-7(8H)-yl)methanone], the pKi was 6.00 to 6.30.

Take `CC1c2nnc(-c3csc(N4CCOCC4)n3)n2CCN1C(=O)c1ccc(F)cc1` (stereo not shown) [Compound 52, (4-fluorophenyl)(8-methyl-3-(2-morpholinothiazol-4-yl)-5,6-dihydro-[1,2,4]triazolo[4,3-a]pyrazin-7(8H)-yl)methanone]: the pKi was above 6.30.

Take `O=C(c1ccccc1)N1CCn2c(nnc2-c2ccccn2)C1` [Compound 231, phenyl(3-(pyridin-2-yl)-5,6-dihydro-[1,2,4]triazolo[4,3-a]pyrazin-7(8H)-yl)methanone]: the pKi was 5.30 to 6.00.

Turning to `N#Cc1ccc(-c2ccc(C(=O)N3CCn4c(nnc4-c4ccc5ccccc5n4)C3)cc2)cc1` [Compound 103, 4′-(3-(quinolin-2-yl)-5,6,7,8-tetrahydro-[1,2,4]triazolo[4,3-a]pyrazine-7-carbonyl)-[1,1′-biphenyl]-4-carbonitrile], the pKi was 5.30 to 6.00.

Take `Cc1ccc(-c2nc(-c3nnc4n3CCN(C(=O)c3ccc(-c5cccs5)cc3)C4)cs2)cc1` [Compound 191, (4-(thiophen-2-yl)phenyl)(3-(2-(p-tolyl)thiazol-4-yl)-5,6-dihydro-[1,2,4]triazolo[4,3-a]pyrazin-7(8H)-yl)methanone]: the pKi was below 5.30.

Regarding `O=C(c1cc(-c2ccc(Cl)cc2Cl)n[nH]1)N1CCn2c(nnc2-c2ccccn2)C1` [Compound 13, (3-(2,4-dichlorophenyl)-1H-pyrazol-5-yl)(3-(pyridin-2-yl)-5,6-dihydro-[1,2,4]triazolo[4,3-a]pyrazin-7(8H)-yl)methanone], the pKi was 5.30 to 6.00.

Regarding `O=C(c1ccc(-c2ccc(F)cc2)cc1)N1CCn2c(nnc2-c2ccccn2)C1` [Compound 16, (4′-fluoro-[1,1′-biphenyl]-4-yl)(3-(pyridin-2-yl)-5,6-dihydro-[1,2,4]triazolo[4,3-a]pyrazin-7(8H)-yl)methanone], the negative-log Ki (pKi) was 5.30 to 6.00.

In the case of `O=C(c1ccc(-c2cccs2)cc1)N1CCn2c(nnc2-c2csc(-c3ncccn3)n2)C1` [Compound 226, (3-(2-(pyrimidin-2-yl)thiazol-4-yl)-5,6-dihydro-[1,2,4]triazolo[4,3-a]pyrazin-7(8H)-yl)(4-(thiophen-2-yl)phenyl)methanone], the pKi is below 5.30.

For `Cc1cccc(-c2nnc3n2CCN(C(=O)c2ccc(-c4ccccc4)cc2)C3C)n1` (stereo not shown) [Compound 286, [1,1′-biphenyl]-4-yl(8-methyl-3-(6-methylpyridin-2-yl)-5,6-dihydro-[1,2,4]triazolo[4,3-a]pyrazin-7(8H)-yl)methanone], the pKi is above 6.30.

As for `C[C@@H]1c2nnc(-c3csc(-c4ccccc4)n3)n2CCN1C(=O)c1ccc(-c2cccs2)cc1` [Compound 135, (R)-(8-methyl-3-(2-phenylthiazol-4-yl)-5,6-dihydro-[1,2,4]triazolo[4,3-a]pyrazin-7(8H)-yl)(4-(thiophen-2-yl)phenyl)methanone], the pKi was above 6.30.

Regarding `O=C(c1ccc(F)cc1)N1CCn2c(nnc2-c2cc(-c3ccccc3)n[nH]2)C1` [Compound 269, (4-fluorophenyl)(3-(3-phenyl-1H-pyrazol-5-yl)-5,6-dihydro-[1,2,4]triazolo[4,3-a]pyrazin-7(8H)-yl)methanone], the pKi was 6.00 to 6.30.

Regarding `CC1(C)CCN(c2nc(-c3nnc4n3CCN(C(=O)c3ccc(F)cc3)C4)cs2)CC1` [Compound 276, (3-(2-(4,4-dimethylpiperidin-1-yl)thiazol-4-yl)-5,6-dihydro-[1,2,4]triazolo[4,3-a]pyrazin-7(8H)-yl)(4-fluorophenyl)methanone], the pKi was below 5.30.

A further experiment relates to circulating levels of luteinizing hormone (LH). In words: Castrated male rat model, circulating levels of luteinizing hormone (LH). Format: in vivo. Conditions: castrated male SD rats, single intravenous dose (156 and 144: 10 mg/kg; 71: 15 mg/kg; 114: 20 mg/kg), 60 min post dosing (156 also 120 min), vs. baseline.
Regarding `C[C@@H]1c2nnc(-c3ccc4ccccc4n3)n2CCN1C(=O)c1ccc(-c2cccs2)cc1` [Compound 144, (R)-(8-methyl-3-(quinolin-2-yl)-5,6-dihydro-[1,2,4]triazolo[4,3-a]pyrazin-7(8H)-yl)(4-(thiophen-2-yl)phenyl)methanone], the “effect on LH serum levels” value is on record as “significantly suppressed GnRH-mediated elevation of LH”.

Consider `CC1c2nnc(-c3coc(-c4ccccc4)n3)n2CCN1C(=O)c1ccc(-c2cccs2)cc1` (stereo not shown) [Compound 114, (8-methyl-3-(2-phenyloxazol-4-yl)-5,6-dihydro-[1,2,4]triazolo[4,3-a]pyrazin-7(8H)-yl)(4-(thiophen-2-yl)phenyl)methanone], for which the “effect on LH serum levels” value was “significantly suppressed GnRH-mediated elevation of LH”.

As for `C[C@@H]1c2nnc(-c3csc(-c4ccc(F)cc4)n3)n2CCN1C(=O)c1ccc(F)cc1` [Compound 71, (R)-(4-fluorophenyl)(3-(2-(4-fluorophenyl)thiazol-4-yl)-8-methyl-5,6-dihydro-[1,2,4]triazolo[4,3-a]pyrazin-7(8H)-yl)methanone], the “effect on LH serum levels” value is “significantly suppressed GnRH-mediated elevation of LH”.
